Laboratory results reported in the NIST ThermoML archive (doi:10.1016/j.tca.2015.06.017).

Assay: xn = mol fraction of the nth substance listed
Settings: Liquid, Vibrating tube method

CCC(C)Cl (configuration not stated) [2-chlorobutane] + CCCCCCC
mass density [kg/m3]
Settings	293.15 K	298.15 K
100 kPa, x2 = 0.0524	–	853.5
100 kPa, x2 = 0.1018	–	841
100 kPa, x2 = 0.1968	–	818.39
100 kPa, x2 = 0.3006	–	795.55
100 kPa, x2 = 0.4029	–	774.75
100 kPa, x2 = 0.5017	–	756.09
100 kPa, x2 = 0.6008	–	738.72
100 kPa, x2 = 0.7023	–	722.14
100 kPa, x2 = 0.7977	–	707.68
100 kPa, x2 = 0.8986	–	693.37
100 kPa, x2 = 0.952	–	686.19
2000 kPa, x2 = 0.0524	–	855.76
2000 kPa, x2 = 0.1018	–	843.26
2000 kPa, x2 = 0.1968	–	820.66
2000 kPa, x2 = 0.3006	–	797.76
2000 kPa, x2 = 0.4029	–	776.96
2000 kPa, x2 = 0.5017	–	758.28
2000 kPa, x2 = 0.6008	–	740.85
2000 kPa, x2 = 0.7023	–	724.29
2000 kPa, x2 = 0.7977	–	709.77
2000 kPa, x2 = 0.8986	–	695.44
2000 kPa, x2 = 0.952	–	688.29
5000 kPa, x2 = 0.0524	–	859.07
5000 kPa, x2 = 0.1018	–	846.59
5000 kPa, x2 = 0.1968	–	823.96
5000 kPa, x2 = 0.3006	–	800.99
5000 kPa, x2 = 0.4029	–	780.1
5000 kPa, x2 = 0.5017	–	761.4
5000 kPa, x2 = 0.6008	–	743.93
5000 kPa, x2 = 0.7023	–	727.26
5000 kPa, x2 = 0.7977	–	712.67
5000 kPa, x2 = 0.8986	–	698.28
5000 kPa, x2 = 0.952	–	691.09
7000 kPa, x2 = 0.0524	–	861.28
7000 kPa, x2 = 0.1018	–	848.7
7000 kPa, x2 = 0.1968	–	826.06
7000 kPa, x2 = 0.3006	–	803.03
7000 kPa, x2 = 0.4029	–	782.16
7000 kPa, x2 = 0.5017	–	763.43
7000 kPa, x2 = 0.6008	–	745.91
7000 kPa, x2 = 0.7023	–	729.24
7000 kPa, x2 = 0.7977	–	714.61
7000 kPa, x2 = 0.8986	–	700.19
7000 kPa, x2 = 0.952	–	692.99
10000 kPa, x2 = 0.0524	–	864.5
10000 kPa, x2 = 0.1018	–	851.96
10000 kPa, x2 = 0.1968	–	829.21
10000 kPa, x2 = 0.3006	–	806.14
10000 kPa, x2 = 0.4029	–	785.11
10000 kPa, x2 = 0.5017	–	766.31
10000 kPa, x2 = 0.6008	–	748.74
10000 kPa, x2 = 0.7023	–	731.99
10000 kPa, x2 = 0.7977	–	717.31
10000 kPa, x2 = 0.8986	–	702.79
10000 kPa, x2 = 0.952	–	695.56
20000 kPa, x2 = 0.0524	–	874.44
20000 kPa, x2 = 0.1018	–	861.8
20000 kPa, x2 = 0.1968	–	838.93
20000 kPa, x2 = 0.3006	–	815.63
20000 kPa, x2 = 0.4029	–	794.49
20000 kPa, x2 = 0.5017	779.78	775.52
20000 kPa, x2 = 0.6008	761.93	757.79
20000 kPa, x2 = 0.7023	744.92	740.82
20000 kPa, x2 = 0.7977	730	726.04
20000 kPa, x2 = 0.8986	715.31	711.31
20000 kPa, x2 = 0.952	707.96	704.04
30000 kPa, x2 = 0.0524	888.05	883.44
30000 kPa, x2 = 0.1018	875.23	870.7
30000 kPa, x2 = 0.1968	852.05	847.61
30000 kPa, x2 = 0.3006	828.48	824.28
30000 kPa, x2 = 0.4029	807.16	802.95
30000 kPa, x2 = 0.5017	787.91	783.76
30000 kPa, x2 = 0.6008	769.94	765.87
30000 kPa, x2 = 0.7023	752.73	748.83
30000 kPa, x2 = 0.7977	737.68	733.86
30000 kPa, x2 = 0.8986	722.85	719
30000 kPa, x2 = 0.952	715.45	711.62
40000 kPa, x2 = 0.0524	896.17	891.7
40000 kPa, x2 = 0.1018	883.24	878.82
40000 kPa, x2 = 0.1968	859.99	855.64
40000 kPa, x2 = 0.3006	836.22	832.09
40000 kPa, x2 = 0.4029	814.71	810.61
40000 kPa, x2 = 0.5017	795.32	791.32
40000 kPa, x2 = 0.6008	777.21	773.3
40000 kPa, x2 = 0.7023	759.89	756.08
40000 kPa, x2 = 0.7977	744.68	741.01
40000 kPa, x2 = 0.8986	729.72	726.09
40000 kPa, x2 = 0.952	722.25	718.59
50000 kPa, x2 = 0.0524	903.66	899.36
50000 kPa, x2 = 0.1018	890.68	886.42
50000 kPa, x2 = 0.1968	867.25	863
50000 kPa, x2 = 0.3006	843.41	839.43
50000 kPa, x2 = 0.4029	821.7	817.84
50000 kPa, x2 = 0.5017	802.25	798.42
50000 kPa, x2 = 0.6008	784.01	780.24
50000 kPa, x2 = 0.7023	766.55	762.91
50000 kPa, x2 = 0.7977	751.26	747.7
50000 kPa, x2 = 0.8986	736.16	732.64
50000 kPa, x2 = 0.952	728.63	725.09
60000 kPa, x2 = 0.0524	910.6	906.5
60000 kPa, x2 = 0.1018	897.63	893.49
60000 kPa, x2 = 0.1968	874.05	870.05
60000 kPa, x2 = 0.3006	850.18	846.26
60000 kPa, x2 = 0.4029	828.39	824.58
60000 kPa, x2 = 0.5017	808.8	805.08
60000 kPa, x2 = 0.6008	790.44	786.84
60000 kPa, x2 = 0.7023	772.89	769.41
60000 kPa, x2 = 0.7977	757.51	754.11
60000 kPa, x2 = 0.8986	742.26	738.96
60000 kPa, x2 = 0.952	734.67	731.32
65000 kPa, x2 = 0.0524	913.94	909.89
65000 kPa, x2 = 0.1018	900.93	896.87
65000 kPa, x2 = 0.1968	877.31	873.4
65000 kPa, x2 = 0.3006	853.35	849.57
65000 kPa, x2 = 0.4029	831.52	827.86
65000 kPa, x2 = 0.5017	811.84	808.29
65000 kPa, x2 = 0.6008	793.41	789.99
65000 kPa, x2 = 0.7023	775.8	772.52
65000 kPa, x2 = 0.7977	760.33	757.18
65000 kPa, x2 = 0.8986	745.06	741.94
65000 kPa, x2 = 0.952	737.4	734.28
